Measured values taken from PubChem BioAssay AID2060485 (Molecular Pharmacology Branch, DTP, NCI, 2025).
Where “and” joins values, the source holds several entries; their conditions need not be identical. Equal values may be shown once.

Test system: A375 multi-cell spheroids with HUVEC/MSC, viability
Experiment: Anticancer human tumor A375 cell line growth inhibition [GQUAD];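 note: spheroids exposed to compounds for seven days before readout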
Conditions: for viability, T/C: stronger effect = lower value
Source text: DNA G-quadruplex Stabilizer Agents in Combinations in Complex Spheroids
A high-throughput screen of multi-cell type tumor spheroids was designed to identify active combinations of DNA G-quadruplex stabilizer agents and targeted small molecules. Complex spheroids include a stromal component modeled by human endothelial cells (HUVEC) and fibroblasts modeled by human mesenchymal stem cells (MSCs). The concentration ranges selected for each drug and investigational agent were based upon clinically achievable concentrations if the clinical Cmax of the agent was known.
Compounds. The drugs and investigational agents: pidnarulex (CX-5461; NSC782164), APTO-253 (NSC789042), BRACO-19 (NSC847499), peposertib (NSC802822), ceralasertib (NSC780249), elimusertib (NSC800525), camonsertib (NSC841442), AZD-1390 (NSC803789), olaparib (NSC753686), talazoparib (NSC767125), ART-558 (NSC835418), sotorasib (NSC818433), MRTX-1133 (NSC836407), SN-38 (NSC673596), topotecan (NSC609699), etoposide (NSC141540), doxorubicin (NSC123127), gemcitabine (NSC613327), 5-fluorouracil (NSC19893), paclitaxel (NSC125973), vemurafenib (NSC761431), panobinostat (NSC761190), R-306465 (JNJ-16241199; NSC773264), adavosertib (NSC754352), TP-3654 (NSC805149), carboplatin (NSC241240), KSQ-4279 (NSC840948), and staurosporine (NSC755774) were obtained from the National Cancer Institute (NCI) Developmental Therapeutics Program Chemical Repository (34). The FDA-approved anticancer drug set is available from the NCI Developmental Therapeutics Program. […] The stock solutions were prepared in dimethyl sulfoxide (DMSO, Sigma-Aldrich, St. Louis, MO, cat. D2650) at 800-fold the tested concentration and stored at -70 degrees C prior to their use. All drugs and investigational agents were tested over a range starting from a high concentration at or near the clinical Cmax and decreasing in half-log increments. If the clinical Cmax for an agent had not been determined, the highest concentration tested was 10 microM.
2.3 Cell Culture. All cells were maintained in an incubator at 37 degrees C and 5% CO2 with 95% humidity. The PDC lines were cultured according to standard operating procedures established by the NCI PDMR. All PDCs were thawed and cultured in Matrigel-coated flasks prepared with a working solution of 1X Ham's F-12 nutrient mix, without supplementation (Invitrogen, cat. 11765054), 100 U/mL penicillin-streptomycin (Invitrogen, cat. 15140122), and 2.5% Matrigel (Corning Inc., cat. 354248) for the first three passages. The 857933-349-R-J2-PDC line was cultured in 6C/Colon 1B media, which includes advanced DMEM/F-12 (Thermo Fisher Scientific, cat. 12634028), 10 mM HEPES (Thermo Fisher Scientific, cat. 15630080), 1X GlutaMAX supplement (Thermo Fisher Scientific, cat. 35050061), 0.1 mg/mL primocin (InvivoGen, cat. ant-pm-2), 10% defined fetal bovine serum, heat inactivated (HyClone Laboratories Inc., cat. SH30070.03HI), 50% L-WRN conditioned media (ATCC, cat. CRL-3276), 1.25 mM N-Acetyl-L-cysteine (Sigma-Aldrich, cat. A9165), 10 mM nicotinamide (Sigma-Aldrich, cat. N0636), 1X B-27 supplement (Thermo Fisher Scientific, cat. 17504044), 1X N-2 supplement (Thermo Fisher Scientific, cat. 17502048), 10 microM Y-27632 dihydrochloride (Tocris Bioscience, cat. 1254), and 50 ng/mL human EGF recombinant protein (Thermo Fisher Scientific, cat. PHG0311). The 485176-168-R4-J1-PDC line was cultured in Panc media, which includes all 6C/Colon 1B media components plus 100 ng/mL human FGF-10 (Thermo Fisher Scientific, cat. 100-26), 500 nM SB-431542 (Selleckchem, cat. S1067), and gastrin (Tocris, cat. 3006).
[…]

[1] = compound alone, run of 03/26/2024
[2] = compound alone, run of 03/18/2024

SMILES	viability, T/C (compound 0.0316 µM)	viability, T/C (compound 0.1 µM)	viability, T/C (compound 0.316 µM)	viability, T/C (compound 1 µM)	viability, T/C (compound 3.16 µM)	viability, T/C (compound 10 µM)	IC50 (curve of compound)	viability, T/C (compound 0.000999 µM)	viability, T/C (compound 0.00316 µM)	viability, T/C (compound 0.00999 µM)	viability, T/C (compound 0.0999 µM)	IC50 [1] [nM]	IC50 [2]
C#Cc1c(F)ccc2cc(O)cc(-c3ncc4c(N5CC6CCC(C5)N6)nc(OCC56CCCN5CC(F)C6)nc4c3F)c12 (configuration not stated)	103% and 97.8% and 101%	96% and 106% and 96.2%	97.2% and 96.2% and 108%	101% and 117% (2×)	113% and 106% and 101%	90.4% and 98.4% and 113%	> 10000 nM						
C=CC(=O)N1CCN(c2nc(=O)n(-c3c(C)ccnc3C(C)C)c3nc(-c4c(O)cccc4F)c(F)cc23)C(C)C1 (configuration not stated)	94.3% and 100% and 93.8%	105% and 91.8% and 94.4%	95.2% and 94.2% and 99%	101% and 90.2% and 99.8%	109% and 99.3% and 126%	101% and 119% and 111%	> 10000 nM						
C=CCn1c(=O)c2cnc(Nc3ccc(N4CCN(C)CC4)cc3)nc2n1-c1cccc(C(C)(C)O)n1	101% and 98.4% and 96.4%	104% and 102% and 96.9%	89.5% and 96.9% and 102%	48.4% and 59% and 66.4%	11.5% and 13.3% and 17.2%	5.76% and 7.73% and 8.28%	943 nM and 1250 nM and 1470 nM						
CC(=O)O[C@H]1C(=O)[C@@]2(C)[C@H]([C@H](OC(=O)c3ccccc3)[C@]3(O)C[C@H](OC(=O)[C@H](O)[C@@H](NC(=O)c4ccccc4)c4ccccc4)C(C)=C1C3(C)C)[C@]1(OC(C)=O)CO[C@@H]1C[C@@H]2O	68.9% and 90.7% and 112%	18.1% and 20.5% and 32.6%	9.64% and 11.9% and 16.6%	9.68% and 8.91% and 13.8%	7.88% and 12.2% and 13.3%	10.8% and 15.2% and 17.8%	48.5 nM and 61.6 nM and 77.6 nM						
CC(C)(O)C1CCC(Nc2ccc3ncc(-c4cccc(C(F)(F)F)c4)n3n2)CC1 (configuration not stated)	104% and 93.2% and 105%	105% and 99.9% and 95.9%	99.1% and 95.6% and 91.5%	97.7% and 95.2% and 105%	90.2% and 83.5% and 92%	87.5% and 88% and 97.8%	> 10000 nM						
CC(C)n1c(=O)n(C)c2cnc3cc(F)c(-c4ccc(OCCCN5CCCCC5)nc4)cc3c21	103% and 99.6% and 97.1%	92.8% and 105% and 111%	96.4% and 103% and 99.7%	97.4% and 108% and 98.7%	102% and 114% and 109%	94.5% and 85.4% and 97.5%	> 10000 nM						
CC1COCCN1c1cc(-c2ccnn2C)c2ccnc(-c3ccn[nH]3)c2n1 (configuration not stated)	106% and 103% and 105%	87.6% and 77% and 93.2%	75.4% and 49.7% and 69.2%	38.9% and 25% and 31.8%	13.2% and 9.89% and 11.6%	11.8% and 10.5% and 11.2%	677 nM and 294 nM and 561 nM						
CC1COCCN1c1cc(C2(O)CC3CCC(C2)O3)c2cnn(-c3ccn[nH]3)c2n1 (configuration not stated)	117% and 107% and 101%	73.7% and 86.2% and 65.1%	47.9% and 53.4% and 35.1%	19.1% and 20.1% and 14.9%	12.1% and 10.6% and 9.5%	8.52% and 8.96% and 7.33%	250 nM and 334 nM and 176 nM						
CC1COCCN1c1cc(C2(S(C)(=N)=O)CC2)nc(-c2ccnc3[nH]ccc23)n1 (configuration not stated)	103% and 102%	97.6% and 102%	104% and 98.5%	109% and 103%	54.7% and 63.4%	42.4% and 36.1%	4900 nM and 5560 nM						
CCCS(=O)(=O)Nc1ccc(F)c(C(=O)c2c[nH]c3ncc(-c4ccc(Cl)cc4)cc23)c1F	41.8% and 44% and 40.9%	16.1% and 14.9% and 17.2%	8.83% and 9.93% and 11.1%	6.9% and 7.11% and 7.65%	5.54% and 6.38% and 6.53%	5.63% and 5.69% and 7.54%	< 31.6 nM						
CC[C@@]1(O)C(=O)OCc2c1cc1n(c2=O)Cc2cc3c(CN(C)C)c(O)ccc3nc2-1	80.7% and 57% and 63%		14.6% and 9.66% and 10.5%				59.3 nM and 39.5 nM and 45.8 nM	104% and 102% and 101%	105% (2×) and 93.9%	108% and 96.2% and 102%	24.7% and 19.6% and 22%		
CCc1c2c(nc3ccc(O)cc13)-c1cc3c(c(=O)n1C2)COC(=O)[C@]3(O)CC	18% and 14.4% and 15%		0.56% and 1.25% and 0.77%				< 0.999 nM	45.1% and 41.4% and 38.3%	17.9% and 15.3% and 17.3%	15.6% and 10.1% and 12.2%	4.97% and 4.55% and 5.97%		
CN(C)c1ccc(Nc2c3ccc(NC(=O)CCN4CCCC4)cc3nc3cc(NC(=O)CCN4CCCC4)ccc23)cc1	98.8% [middle of 12 runs]	103% [middle of 12 runs]	104% [middle of 12 runs]	101% [middle of 12 runs]	106% [middle of 12 runs]	102% [middle of 12 runs]						> 10000	
COc1cc(C2c3cc4c(cc3C(OC3OC5COC(C)OC5C(O)C3O)C3COC(=O)C23)OCO4)cc(OC)c1O (configuration not stated)	93.3% and 94.2% and 109%	105% (2×) and 118%	93.9% and 92.3% and 76.3%	65.6% and 63.6% and 58.4%	34% and 34.8% and 33.6%	24.1% and 21.5% and 21.2%	1750 nM and 1690 nM and 1370 nM						
COc1ccc([C@@H](O)c2cc(-c3ncnc4cc(N5CCOCC5)ccc34)c(F)cc2Cl)nn1	97.1% and 112%	107% and 117%	102% and 98.3%	101% and 103%	100% and 91%	83% and 67.6%	> 10000 nM						
COc1cccc2c1C(=O)c1c(O)c3c(c(O)c1C2=O)CC(O)(C(=O)CO)CC3OC1CC(N)C(O)C(C)O1 (configuration not stated)	93% and 102% and 100%	89.2% and 78.7% and 73.9%	33.4% and 33.9% and 34.3%	19.4% and 18.2% and 21.9%	1.94% and 2.47% and 2.18%	0.14% and 0.19% and 0.1%	231 nM and 221 nM and 215 nM						
COc1ncnc(C2CC2)c1-c1ncc2cnn(Cc3ccc(-c4nc(C(F)(F)F)cn4C(C)C)cc3)c2n1	94% and 97.5% and 102%	93.6% and 99.8% and 99.5%	93.8% and 100% and 99.5%	104% and 98.2% and 103%	109% and 103% and 105%	106% and 108% and 99.5%	> 10000 nM						
Cc1[nH]c2ccc(F)cc2c1-c1nc2c3cccnc3c3ncccc3c2[nH]1	99.2% [middle of 12 runs]	99.6% [middle of 12 runs]	103% [middle of 12 runs]	102% [middle of 12 runs]		100% [middle of 12 runs]						> 10000	> 10000 nM
Cc1[nH]c2ccccc2c1CCNCc1ccc(/C=C/C(=O)NO)cc1	114% (2×) and 115%		7.14% and 9% and 10.9%				99.1 nM and 120 nM and 186 nM	103% and 99.2% and 97.9%	98.1% and 105% and 101%	110% and 118% and 113%	49.5% and 57.8% and 96%		
Cc1cccc(N(C)C(=O)C2C(O)CCN2c2nc(C)cc(C(F)(F)F)c2C#N)c1 (configuration not stated)	110% and 103% and 101%	94.9% and 106% and 101%	97.7% and 98.8% and 106%	97.1% and 104% and 90.2%	96.7% and 109% and 108%	97.8% and 103% and 95%	> 10000 nM						
Cc1cnc(CNC(=O)c2c(=O)c3ccc(N4CCCN(C)CC4)nc3n3c2sc2ccccc23)cn1	101% [middle of 11 runs]	82.4% [middle of 11 runs]	57.1% [middle of 11 runs]	42.3% [middle of 11 runs]	37.6% [middle of 11 runs]	31.1% [middle of 11 runs]							582 nM [middle of 11 runs]
Cn1ncnc1[C@H]1c2n[nH]c(=O)c3cc(F)cc(c23)N[C@@H]1c1ccc(F)cc1	108% and 106% and 99.2%		94.1% and 91.5% and 92.8%				> 316 nM	93.9% and 104% and 90.5%	98% and 101% and 97%	104% and 103% and 98.8%	112% and 104% and 98.9%		
Nc1ccn(C2OC(CO)C(O)C2(F)F)c(=O)n1 (configuration not stated)	17.8% and 12.3% and 18.4%	9.82% and 7.07% and 9.32%	9.4% and 5.69% and 8.76%	10.4% and 6.8% and 10.7%	11.5% and 7.2% and 10.4%	9.06% and 6.96% and 7.8%	< 31.6 nM						
O=C(NO)c1cnc(N2CCN(S(=O)(=O)c3ccc4ccccc4c3)CC2)nc1	107% and 124% and 114%	109% and 110% and 112%	5.8% and 7.04% and 12.4%	0.3% and 0.23%	0.3% and 0.39% and 0.16%	0.32% and 0.35% and 0.19%	192 nM and 195 nM and 205 nM						
O=C(c1cc(Cc2n[nH]c(=O)c3ccccc23)ccc1F)N1CCN(C(=O)C2CC2)CC1	93.2% and 101% and 92.1%	92% and 98.2% and 93.7%	98.1% and 94.9% and 107%	101% (2×) and 99.2%	101% and 105% and 95.4%	91% and 84.7% and 87.8%	> 10000 nM						
O=c1[nH]cc(F)c(=O)[nH]1	97% and 94.6% and 100%	103% and 94.6% and 105%	106% and 95.4% and 101%	96.8% and 100% and 101%	106% and 94.5% and 104%	104% and 106% and 103%	> 10000 nM						
